{
  "source": "patent US7105173B1",
  "about": "“Nicotine replacement applique” (priority 2002, dated 2006)",
  "key": {"[1]": {"conditions": "cited from earlier work"}},
  "data": [
    {"smiles": "CN1CCCC1c1cccnc1", "note": "(centres unmarked) [nicotine]", "values": [
      {"measurement": "LD50 oral level expressed as total amount for a small infant", "result": "about 250 mg"},
      {"measurement": "LD50 oral level", "setting": "[1]", "result": "approximately 55 milligrams per Kilogram of body weight"}
    ]}
  ]
}
